Measurements taken from patent US20240197666A1, “DITERPENOID COMPOUNDS THAT ACT ON PROTEIN KINASE C (PKC)” (K-Gen Therapeutics, Inc., priority 2021, published 2024).
Where two headings read alike, the source gives them in different places.

Legend:
C1b domain of human PKCα = molecular target: T1, C1b domain of human PKCα (Homo sapiens, UniProt P17252); experiment: biochemical; assay type: binding; conditions: 3H-PDBu competition
T1 construct: Genes encoding C1b domains of human PKCα, δ, ε, θ, and PKD1 (PKCμ) were synthesized; made in house; host or cells: E. coli BL21(DE3)

[1] = system: phosphorylation of PKCμ, PKCδ and Erk1/2 in A549 lung cancer cells; experiment: Western blot of activation of PKC and downstream target protein in A549 cells; assay type: cell-based; conditions: 30 minutes
Description: According to the methods described in patent (WO/2017/083783) A549 lung cancer cells (˜3 million cells) were seeded in 10 cm tissue culture dishes (or ˜1 million cells in 6 cm dish) and grown overnight. Cells were then treated with different drugs at indicated concentrations for 30 minutes. Cell lysate preparation, protein quantitation, SDS-PAGE, and Western blotting procedures are described (WO/2017/083783). β-actin or Vinculin was used as loading controls. Imagequant LAS4000 (GE) was used to scan membranes if secondary antibodies anti-mouse IgG HRP conjugate or anti-rabbit IgG HRP conjugate (dilutions from 1:2000-1:10000) were used. For ProteinSimple Wes system, manufacture's procedure was followed (ProteinSimple 12-230 kDa Wes Separation Module) for sample preparation, loading, running, and data analysis.
Phosphorylation of these sites has been linked to acute activation or catalytic activity of the PKC isoforms and Erk1/2. High level of phosphorylation indicates strong activation.
A subset of the diterpenoid compounds with good binding affinity to novel PKC isoforms and PKCμ was tested at two different concentrations in A549 cells to assess activation of PKCμ, PKCδ, and Erk1/2 by Western blot analysis. In addition to the phospho-specific antibodies described above, an additional phospho-specific antibody P-PKCδ (S299) (Abcam cat #133456) was also used. This antibody has been shown in the literature (Durgan et al., FEBS Lett. 2007, 581(18):3377-81, Novel phosphorylation site markers of protein kinase C delta activation) to be able to detect activation of PKCδ. K-101 (prostratin, 1 μM) was included as reference compounds.

A549 cell line = experiment: Proliferation of A549 (CellTiter Glo); assay type: cell-based; conditions: read-out: IC50 μM (A549 Cell Line)
Outline: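 Compound effect on proliferation was read as CellTiter Glo luminescence after 96 h exposure to a 3-fold dilution series (≤0.25% DMSO). A549 cells, which carry activating K-Ras, were plated at 1,000/well one day before dosing. IC50, relative IC50 and maximal inhibition were fitted from % inhibition versus DMSO control.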

HL-60 (Leukemia) = experiment: Proliferation of HL-60; assay type: cell-based; conditions: for IC50: read-out: IC50 HL-60 (Leukemia)
Namalwa (Lymphoma) = experiment: Proliferation of Namalwa; assay type: cell-based; conditions: for IC50: read-out: IC50 Namalwa (Lymphoma)
Outline: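 Proliferation was measured in the K-Ras mutant pancreatic lines and in HL-60 and Namalwa cells. These were plated at densities set per line and left 24 h before compound was added. After 96 h with serially diluted compound, viability was read by CellTiter Glo and IC50 derived.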

Mino (Lymphoma) = experiment: Proliferation of Mino; assay type: cell-based; conditions: for IC50: read-out: IC50 Mino (Lymphoma)
Outline: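 Luminescent ATP read-out (CellTiter Glo) after 96 h compound exposure gave % inhibition relative to DMSO-treated cells, from which IC50 was fitted. Seeding densities were line-specific, from 800 to 10000 cells/well. Potency across batches was normalised to reference compound K101.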

[2] = system: NFκB-driven transcription in HeLa-NFκB luciferase reporter cell line; experiment: NFκB luciferase reporter assay
Panc2.13 tumors = experiment: Panc2.13 xenograft model, intra-tumoral injection; assay type: in vivo, mouse; conditions: end of efficacy study, three mice per group, seven daily IT injections
Description: Immunodeficient (athymic) Nu/Nu mice were implanted at one flank subcutaneously with Panc2.13 pancreatic cancer cells. […] All groups tolerated drug treatments very well. […] Scabs formed after 1-2 weeks and the skin recovered with minimal scaring after 3-4 weeks. Tumor growth/re-growth on or near the injection site was monitored for up to 55 days. […] Tumor growth inhibition is calculated by dividing the group average tumor volume for the treated group by the group average tumor volume for the control group (TIC). A one-way ANOVA was performed to compare tumor volume among groups, and when a significant F-statistics (a ratio of treatment variance to the error variance) was obtained, comparisons between groups were carried out with Games-Howell test. All data were analyzed using GraphPad 5.0. P<0.05 was considered to be statistically significant.
A Mann-Whitney method was performed to analyze the tumor clearance rate comparing drug treated groups with the vehicle group at the end of the efficacy study. P<0.05 was considered to be statistically significant. Vehicle-injected tumors kept growing and there was no tumor clearance at the end point.

C1b domain of human PKCδ = molecular target: T2, C1b domain of human PKCδ (Homo sapiens, UniProt Q05655); experiment: biochemical; assay type: binding; conditions: 3H-PDBu competition
T2 construct: Genes encoding C1b domains of human PKCα, δ, ε, θ, and PKD1 (PKCμ) were synthesized; made in house; host or cells: E. coli BL21(DE3)
T2 sequence (Q05655 230-280 limits assumed): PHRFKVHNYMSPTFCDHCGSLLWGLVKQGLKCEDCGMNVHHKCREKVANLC
Outline: (§1)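 Binding is reported as Ki, derived from IC50 using Cheng-Prusoff with the experimentally determined 3H-PDBu Kd of each protein preparation. Tracer displacement from recombinant human GST-C1b (E. coli BL21(DE3)) was read by filter scintillation after 10 min at 37° C plus 20 min on ice.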

C1b domain of human PKCε = molecular target: T3, C1b domain of human PKCε (Homo sapiens, UniProt Q02156); experiment: biochemical; assay type: binding; conditions: 3H-PDBu competition
T3 construct: Genes encoding C1b domains of human PKCα, δ, ε, θ, and PKD1 (PKCμ) were synthesized; made in house; host or cells: E. coli BL21(DE3)
T3 sequence (Q02156 242-292 limits assumed): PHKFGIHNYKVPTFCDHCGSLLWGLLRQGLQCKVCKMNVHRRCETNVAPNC
Outline: as §1

C1b domain of human PKCθ = molecular target: T4, C1b domain of human PKCθ (Homo sapiens, UniProt Q04759); experiment: biochemical; assay type: binding; conditions: 3H-PDBu competition
T4 construct: Genes encoding C1b domains of human PKCα, δ, ε, θ, and PKD1 (PKCμ) were synthesized; made in house; host or cells: E. coli BL21(DE3)
T4 sequence (Q04759 231-281 limits assumed): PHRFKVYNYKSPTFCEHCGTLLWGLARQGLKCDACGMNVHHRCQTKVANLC
Outline: as §1

[3] = molecular target: T5, C1b domain of human PKD1 (PKCμ) (Homo sapiens, UniProt Q15139); experiment: Competitive 3H-PDBu binding assay, C1b domain of PKD1 (PKCμ); conditions: 3H-PDBu competition
T5 construct: Genes encoding C1b domains of human PKCα, δ, ε, θ, and PKD1 (PKCμ) were synthesized; made in house; host or cells: E. coli BL21(DE3)
T5 sequence (Q15139 270-320 limits assumed): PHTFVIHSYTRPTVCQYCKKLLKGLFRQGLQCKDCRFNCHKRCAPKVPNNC
Outline: as §1

Panc2.13 (Pancreatic) = experiment: Proliferation of Panc2.13; assay type: cell-based
Description: (§2) The diterpenoid compounds were tested in A549, a non-small cell lung cancer cell line harboring a K-Ras activating mutation. Briefly, A549 cells at a density of 1,000 cells/well were seeded in 96-well plates and incubated at 37° C. for 24 hours. A series of different concentrations of compound stocks (500×) were prepared by 3-fold serial dilution in DMSO. These compounds were further diluted in culture media and then added to cells so that the final DMSO concentration was not exceeding 0.25%. After 96 hours of incubation, 50 μL of CellTiter Glo reagent (Promega) was added to each well and luminescence was measured after 10 minutes using EnVision (PerkinElmer). Luminescence from cells treated with DMSO alone was set as Max and % of inhibition was calculated as follows: Inhibition %=(Max-Sample value)/Max×100. Data was analyzed using XL-fit software (ID Business Solutions Ltd.) and IC50, relative IC50, and % of top inhibition was calculated. Some of the compounds in this disclosure were very potent in blocking proliferation of A549 lung cancer cells at low nM range. In addition, potency of inhibiting A549 proliferation correlated well with its binding affinity to PKCs for this series of compounds. In other words, higher affinity binders had stronger inhibitory effects on A549 proliferation. This further support the notion that activation, rather than inhibition, of certain PKC isoforms is required to block proliferation of cancer cells, some of which may harbor K-Ras mutations. This is in sharp contrast to previous literature and common belief that inhibition of PKC is necessary to block cancer cell growth (Kang, 2014, New Journal of Science, 2014:1-36). Data presented here is in agreement with recent findings that many loss-of-function but not gain-of-function mutations of PKC isoforms have been identified in many human cancers (Antal et al., 2015, Cell, 160:489-502).
(§3) The compounds in this disclosure were tested for their potency in blocking proliferation of a few other cancer cells lines, including K-Ras mutant pancreatic cell lines Panc2.13 and KP-4, leukemia cell line HL-60, and lymphoma cell lines Namalwa and Mino. Similar procedures as in Example 67 were followed. Initial cell numbers seeded in 96-well plates were different for different cell lines: 3000 cells/well for Panc2.13; 800-1000 cells/well for KP-4; 5000 cells/well for HL-60; 5000-10000 cells/well for Namalwa and Mino. A ratio of (IC50 of K101)/(IC50 of compound) (data in parenthesis in Table 5) was used to normalize the compound potency from different assay batches to a common comparator K101.

KP-4 (Pancreatic) = experiment: Proliferation of KP-4; assay type: cell-based; conditions: read-out: IC50 KP-4 (Pancreatic)
Description: as §2, §3

CC1=C[C@H]2[C@@]3(O)[C@H](C)C[C@]4(OC(=O)CCc5ncc(-c6ccc(Cl)cc6)o5)[C@H]([C@@H]3C=C(CO)C[C@]2(O)C1=O)C4(C)C
Ki (C1b domain of human PKCα): 60 to 100 nM
phosphorylation of PKCμ, PKCδ and Erk1/2 ([1]; 0.3 μM): induced high levels of phosphorylation
IC50 (A549 cell line; Homo sapiens, A549, 96 h): 0.03 to 0.06 µM
ratio (IC50 of K101)/(IC50 of compound) HL-60 (HL-60 (Leukemia)): 5.71
IC50 (HL-60 (Leukemia); Homo sapiens, HL-60, 96 h): 100 to 600 nM
ratio (IC50 of K101)/(IC50 of compound) Namalwa (Namalwa (Lymphoma)): 1.15
IC50 (Namalwa (Lymphoma)): 30 to 60 nM
ratio (IC50 of K101)/(IC50 of compound) Mino (Mino (Lymphoma)): 5.36
IC50 (Mino (Lymphoma); Homo sapiens, MINO): 10 to 30 nM
EC50 ([2]; Homo sapiens, HeLa, 16 h, read-out: NFκB-luc HeLa cells EC50 (μM)): 0.1 to 0.2 µM

CC1=C[C@H]2[C@@]3(O)[C@H](C)C[C@]4(OC(=O)[C@H](N)CCCCCCc5ccccc5)[C@H]([C@@H]3C=C(CO)C[C@]2(O)C1=O)C4(C)C [Compound K101-K134801]
tumor clearance (Panc2.13 tumors): complete clearance of tumors

CC1=C[C@H]2[C@@]3(O)[C@H](C)C[C@]4(OC(=O)[C@@H](N)Cc5ccccc5)[C@H]([C@@H]3C=C(CO)C[C@]2(O)C1=O)C4(C)C
Ki (C1b domain of human PKCα): 400 to 800 nM
Ki (C1b domain of human PKCδ): 30 to 60 nM
Ki (C1b domain of human PKCε): 100 to 200 nM
Ki (C1b domain of human PKCθ): 30 to 60 nM
Ki [3]: 10 to 30 nM
phosphorylation of PKCμ, PKCδ and Erk1/2 ([1]; 3 μM): induced phosphorylation
IC50 (A549 cell line; 96 hours, CellTiter Glo): 0.6 to 1 µM
ratio (IC50 of K101)/(IC50 of compound) Panc2.13 (Panc2.13 (Pancreatic)): 0.75
IC50 (Panc2.13 (Pancreatic); read-out: IC50 Panc2.13 (Pancreatic)): 1000 to 2000 nM
IC50 (KP-4 (Pancreatic)): 600 to 1000 nM
ratio (IC50 of K101)/(IC50 of compound) HL-60 (HL-60 (Leukemia)): 0.9
IC50 (HL-60 (Leukemia)): 200 to 600 nM
ratio (IC50 of K101)/(IC50 of compound) Namalwa (Namalwa (Lymphoma)): 0.19
IC50 (Namalwa (Lymphoma)): 200 to 600 nM
ratio (IC50 of K101)/(IC50 of compound) Mino (Mino (Lymphoma)): 0.57
IC50 (Mino (Lymphoma)): 100 to 200 nM
EC50 ([2]; read-out: NFκB-luc HeLa cells EC50, 16h): 0.2 to 0.6 µM
